# Measured values taken from patent publication US3998963A, “Tertiary butyl substituted carbamoyl oxime pesticides” (priority 1975, dated 1976).
# Key:
# Assay type in all cases: in vivo
# [1] = system: insects; test: Insect toxicity, overall; conditions: text statement
# Experimental: Each of the new compounds were evaluated in comparison with known similar prior art compounds to determine their comparative pesticidal activity against mites and certain insects, including an aphid, caterpillar, a beetle and a fly. The new compounds were also tested for phytotoxicity on important economic crops including bean, corn, tomato and cotton. The new compounds were further evaluated for mammalian toxicity.
# (§1) Suspensions of the test compouns were prepared by dissolving one gram of compound in 50 milliliters of acetone in which had been dissolved 0.1 gram (10 percent of the weight of compound) of an alkylphenoxy polyethoxyethanol surfactant, as an emulsifying or dispersing agent. The resulting solution was mixed into 150 milliliters of water to give roughly 200 milliliters of a suspension containing the compound in finely divided form. The thus-prepared stock suspension contained 0.5 percent by weight of compound. The test concentrations in parts per million by weight employed in the tests described hereinbelow were obtained by appropriate dilutions of the stock suspension with water. The test procedures were as follows:
# In Table 1 are presented insect and rat toxicity data (bait tests) on a comparative basis of the compounds described above. […] Rat toxicity is also more meaningfully compared on the basis of molar weight LD50 values. The relative efficacy of the parent compounds as compared to the previously known derivatives and as compared to the new compounds of this invention is also shown in Table 1. The ratio of efficacy as contact poisons (immersion/bait) of the compounds tested against Armyworm and House Fly is presented in Table 2 along with the results of the phytotoxicity tests of the compounds on bean, corn, tomato and cotton.
# [2] = system: tomato; test: Phytotoxicity Test, tomato; conditions: 2500 parts per million; ten days
# Experimental: as §1
# (§2) Experiments were also conducted to determine the phytotoxicity of representative compositions with respect to healthy fresh plants. Solutions of the compounds were prepared as described above to provide a concentration of 2500 parts per million of the test compound. The test plants were sprayed in accordance with the procedure described above for the Mite Foliage Spray Test so as to deliver approximately 100 milliliters of test solution to the leaves of each plant tested. The sprayed plants and controls were set aside for approximately one hour to allow the foliage to dry and were then placed in the greenhouse. […]
# [3] = system: corn; test: Phytotoxicity Test, corn; conditions: 2500 parts per million; ten days
# Experimental: as §1, §2
compound,measurement,setting,value
"CC(=NOC(=O)N(C)Sc1ccc(C(C)(C)C)cc1)SC(C)C [Compound 9, O-[N-Methyl-N-[4-(t-Butylphenyl)sulfenyl]carbamoyl] S-Isopropyl Thiolacetohydroximate]",contact / stomach poison properties for insects (in words),[1],dramatically superior contact poison characteristics
same,insect toxicity / pesticidal activity (in words),[1],"dramatic improvement in activity against all insect species, again with the exception of house fly"
same,contact / stomach poison properties for insects (in words),[1]; listed as O-[ N-methyl-N-[4-(t-butylphenyl) sulfenyl] carbamoyl] S-isopropyl thiolacetohyd,outstanding stomach poison against insects and also appears to be the most powerful contact poison for insects among all of the compositions tested
CCSC(C)=NOC(=O)NC [Compound 3],"Phytotoxicity, Tomato",[2],2
"CSC(C)=NOC(=O)N(C)Sc1ccc(C(C)(C)C)cc1 [Compound 8, O-[N-Methyl-N-[4-(t-butylphenyl)sulfenyl]carbamoyl] S-Methyl Acetothiolhydroximate]",insect toxicity / pesticidal activity (in words),[1],dramatic improvement in toxicity against all insects tested with the exception of house fly
same,insect toxicity / pesticidal activity (in words),[1]; listed as O-[ N-methyl-N-[4-(t-butylphenyl)sulfenyl] carbamoyl] S-methyl acetothiolhydroxi,"exceptionally high insecticidal activity against aphid, armyworm and bean beetle"
CNC(=O)ON=C(C)SC(C)C [Compound 2],"Phytotoxicity, Corn",[3],Bu 2
